US8927533B2, “Thio derivatives bearing lactams as potent HDAC inhibitors and their uses as medicaments” (SIGMA-TAU Industrie Farmaceutiche Riunite S.p.A., priority 2011, dated 2015)
Like-named read-outs stand apart in the source and are kept apart here.

Assays:
HDAC10 = target: T1, HDAC10 (Homo sapiens, UniProt Q969S8); assay: HDAC enzymatic assay, HDAC10; format: biochemical
T1 sequence (Q969S8 1-669): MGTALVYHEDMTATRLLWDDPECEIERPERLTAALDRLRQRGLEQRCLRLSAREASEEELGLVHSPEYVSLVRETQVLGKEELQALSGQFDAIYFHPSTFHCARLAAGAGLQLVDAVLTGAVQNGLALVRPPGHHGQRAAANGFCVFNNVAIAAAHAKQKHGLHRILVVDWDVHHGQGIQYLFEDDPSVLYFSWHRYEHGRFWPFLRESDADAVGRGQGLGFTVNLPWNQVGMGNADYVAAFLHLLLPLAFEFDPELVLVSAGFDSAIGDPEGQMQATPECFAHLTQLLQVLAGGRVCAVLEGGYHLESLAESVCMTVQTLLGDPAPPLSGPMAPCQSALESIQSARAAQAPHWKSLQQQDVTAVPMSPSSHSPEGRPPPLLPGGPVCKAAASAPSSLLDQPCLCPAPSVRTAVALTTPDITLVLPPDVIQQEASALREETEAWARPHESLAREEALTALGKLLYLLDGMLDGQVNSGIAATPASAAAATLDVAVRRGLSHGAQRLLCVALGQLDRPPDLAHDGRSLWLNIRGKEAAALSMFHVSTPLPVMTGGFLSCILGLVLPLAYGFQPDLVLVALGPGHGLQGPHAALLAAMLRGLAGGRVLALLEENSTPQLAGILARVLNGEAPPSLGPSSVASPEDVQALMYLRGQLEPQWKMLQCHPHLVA
Description: (§1) Each compound was dissolved in DMSO, and progressively diluted solutions were used for testing. […] Upon its deacetylation, the fluorophore was released given rise to fluorescence emission which was detected by a fluorimeter, and the IC50 values of the compounds were determined by analyzing dose-response inhibition curves.

HDAC6 = target: T2, HDAC6 (Homo sapiens, UniProt Q9UBN7); assay: HDAC enzymatic assay, HDAC6; format: biochemical
T2 sequence (Q9UBN7 1-1215): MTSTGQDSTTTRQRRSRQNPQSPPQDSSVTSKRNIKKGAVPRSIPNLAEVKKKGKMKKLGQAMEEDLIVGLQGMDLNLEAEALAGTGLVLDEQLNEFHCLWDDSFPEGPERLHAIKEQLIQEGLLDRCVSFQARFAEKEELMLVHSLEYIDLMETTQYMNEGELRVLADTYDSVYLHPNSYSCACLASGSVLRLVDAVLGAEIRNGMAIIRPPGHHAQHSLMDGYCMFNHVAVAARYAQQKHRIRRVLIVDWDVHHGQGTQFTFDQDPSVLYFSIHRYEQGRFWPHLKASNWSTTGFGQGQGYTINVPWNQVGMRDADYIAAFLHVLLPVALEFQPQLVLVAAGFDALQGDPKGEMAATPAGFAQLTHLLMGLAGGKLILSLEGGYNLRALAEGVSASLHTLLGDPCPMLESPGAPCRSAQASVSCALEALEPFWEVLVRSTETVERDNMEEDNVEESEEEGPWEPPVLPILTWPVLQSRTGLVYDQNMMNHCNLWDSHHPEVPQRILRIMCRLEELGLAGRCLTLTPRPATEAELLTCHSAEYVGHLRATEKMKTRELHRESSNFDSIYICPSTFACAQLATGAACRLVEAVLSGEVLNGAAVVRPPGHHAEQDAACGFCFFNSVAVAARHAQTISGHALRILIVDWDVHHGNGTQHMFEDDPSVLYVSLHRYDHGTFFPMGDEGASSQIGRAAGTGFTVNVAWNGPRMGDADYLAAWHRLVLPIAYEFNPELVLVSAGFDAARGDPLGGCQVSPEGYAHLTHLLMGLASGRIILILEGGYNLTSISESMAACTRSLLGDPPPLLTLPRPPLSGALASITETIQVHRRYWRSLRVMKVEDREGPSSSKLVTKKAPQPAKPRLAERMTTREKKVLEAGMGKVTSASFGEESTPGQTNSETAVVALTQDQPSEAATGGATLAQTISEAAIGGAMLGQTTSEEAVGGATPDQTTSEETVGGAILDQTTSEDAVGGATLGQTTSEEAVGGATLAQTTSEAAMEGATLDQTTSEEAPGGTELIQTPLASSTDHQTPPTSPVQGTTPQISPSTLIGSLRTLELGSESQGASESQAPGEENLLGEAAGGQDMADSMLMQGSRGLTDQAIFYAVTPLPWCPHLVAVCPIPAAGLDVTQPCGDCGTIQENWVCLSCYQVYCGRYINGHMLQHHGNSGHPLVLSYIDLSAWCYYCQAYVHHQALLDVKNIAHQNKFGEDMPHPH
Description: as §1

[1] = system: HCT116 colon cancer cells; assay: Cytotoxicity, sulphorodamine B, HCT116; conditions: Homo sapiens, HCT-116, read-out: HCT116 cell line IC50 (μM)
Description: (§3) They were allowed to attach and recover for at least 24 h.
(§4) The plates were incubated for 24 h at 37° C., after which they were washed 3 times by removal of the supernatant and addition of PBS. The plates were then incubated for further 48 h at 37° C. 200 μl PBS and 50 μl of cold 80% TCA were added and the plates were incubated on ice for at least 1 h. TCA was removed and the plates were washed 3 times by immersion in distilled-water. They were then dried on paper at 40° C. for 5 min. 200 μl of 0.4% sulphorodamine B in 1% acetic acid were added. The plates were incubated at room temperature for further 30 min. Sulphorodamine B was removed, and the plates were washed 3 times by immersion in 1% acetic acid and were dried on paper and at 40° C. for 5 min. Then 200 μl Tris 10 mM were added. The plates were kept under magnetic stirring for 20 min. Cell survival was determined by means of optical density by a Multiskan spectrofluorimeter at 540 nm. The amount of cells killed was calculated as the percentage decrease in sulphorodamine B binding compared to control cultures.

HCT116 colon cancer = assay: Antitumour activity, HCT116 xenograft, oral (Example 49); format: in vivo, mice; conditions: 60 mg/10 ml/kg p.o., PEG200/DMSO/Cremophor EL
From the text: (§2) The experiment of example 48 was repeated with another compound on mice animal model developing HCT116 colon cancer as described above or A2780 ovarian cancer, and administering the drugs solubilised in orally in PEG200/DMSO/Cremophor EL (Sigma): 85/10/5 (volume percentage).

[2] = system: NCI-H460 non-small cell lung carcinoma cells; assay: Cytotoxicity, sulphorodamine B, H460; conditions: Homo sapiens, NCI-H460, read-out: H460 cell line IC50 (μM)
Description: as §3, §4

A2780 ovarian cancer = assay: Antitumour activity, A2780 xenograft, oral (Example 49); format: in vivo, mice; conditions: 110 mg/10 ml/kg p.o., PEG200/DMSO/Cremophor EL
From the text: as §2

[3] = fluorogenic tetrapeptide RHKKAc substrate 10 μM, read-out: HDAC isoforms IC50 (nM), 10
[4] = fluorogenic tetrapeptide RHKKAc substrate 10 μM, read-out: HDAC isoforms IC50 (nM), 6
[5] = Table 2, thio (SH) vs hydroxamate (CONHOH) MBG analogues, read-out: HDAC isoforms, 10 (IC50)
[6] = Table 2, thio (SH) vs hydroxamate (CONHOH) MBG analogues, read-out: HDAC isoforms, 6 (IC50)

Structure (SMILES) | IC50 (HDAC10; [3]) [nM] | IC50 (HDAC6; [4]) [nM] | other results
O=C1CCC[C@@H](C(=O)N[C@@H](CCCCCS)C(=O)NCc2cccc(OCc3ccccc3)c2)N1 [Example 25, (S)-6-Oxo-piperidine-2-carboxylic acid [(S)-1-(3-benzyloxy-benzylcarbamoyl)-6-mercapto-hexyl]-amide] | 100 to 500 | 50 to 100 | 
O=C1NC[C@H](c2ccccc2)[C@H]1C(=O)N[C@@H](CCCCCS)C(=O)Nc1ccccc1 [Example 30, (3R,4S)-2-Oxo-4-phenyl-pyrrolidine-3-carboxylic acid ((S)-6-mercapto-1-phenylcarbamoyl-hexyl)-amide] | < 50 | 100 to 500 | 
O=C1NCCC[C@@H]1C(=O)N[C@@H](CCCCCS)C(=O)Nc1ccccc1 [Example 36, (S)-2-Oxo-piperidine-3-carboxylic acid ((S)-6-mercapto-1-phenylcarbamoyl-hexyl)amide] | < 50 | < 50 | 
Cc1ccc(NC(=O)[C@H](CCCCCS)NC(=O)[C@@H]2CCCC(=O)N2)cc1 [Example 39, (S)-6-Oxo-piperidine-2-carboxylic acid ((S)-6-mercapto-1-p-tolylcarbamoyl-hexyl)amide] | < 50 | < 50 | 
O=C1CCC[C@@H](C(=O)N[C@@H](CCCCCS)C(=O)Nc2ccccc2)N1 [Example 23, (S)-6-Oxo-piperidine-2-carboxylic acid ((S)-6-mercapto-1-phenylcarbamoyl-hexyl)amide] | < 50 | < 50 | 
O=C1NC[C@@H](c2ccccc2)[C@H]1C(=O)N[C@@H](CCCCCS)C(=O)Nc1ccccc1 [Example 29, (3R,4R)-2-Oxo-4-phenyl-pyrrolidine-3-carboxylic acid ((S)-6-mercapto-1-phenylcarbamoyl-hexyl)-amide] | < 50 | < 50 | 
Cc1cccc(NC(=O)[C@H](CCCCCS)NC(=O)[C@@H]2CCCC(=O)N2)c1 [Example 38, (S)-6-Oxo-piperidine-2-carboxylic acid ((S)-6-mercapto-1-m-tolylcarbamoyl-hexyl)amide] | < 50 | < 50 | 
O=C1CCC[C@@H](C(=O)N[C@@H](CCCCCS)C(=O)N2CCc3ccccc3C2)N1 [Example 32, (S)-6-Oxo-piperidine-2-carboxylic acid [(S)-1-(3,4-dihydro-1H-isoquinoline-2-carbonyl)-6-mercapto-hexyl]-amide] | 100 to 500 | 100 to 500 | 
O=C1CC[C@H](C(=O)N[C@@H](CCCCCS)C(=O)Nc2ccccc2)N1 [Example 33, (R)-5-Oxo-pyrrolidine-2-carboxylic acid ((S)-6-mercapto-1-phenylcarbamoyl-hexyl)amide] | < 50 | < 50 | IC50 (HDAC10; [5]): < 50 nM; IC50 (HDAC6; [6]): < 50 nM; IC50 [1]: 1 to 10 µM
O=C1NC[C@H](c2ccccc2)[C@@H]1C(=O)N[C@@H](CCCCCS)C(=O)Nc1ccccc1 [Example 28, (3S,4S)-2-Oxo-4-phenyl-pyrrolidine-3-carboxylic acid ((S)-6-mercapto-1-phenylcarbamoyl-hexyl)-amide] | < 50 | < 50 | 
O=C1CCC[C@@H](C(=O)N[C@@H](CCCCCS)C(=O)NC2CCCC2)N1 [Example 24, (S)-6-Oxo-piperidine-2-carboxylic acid ((S)-1-cyclopentylcarbamoyl-6-mercapto-hexyl)amide] | 100 to 500 | < 50 | 
O=C1NC[C@@H](c2ccccc2)[C@@H]1C(=O)N[C@@H](CCCCCS)C(=O)Nc1ccccc1 [Example 31, (3S,4R)-2-Oxo-4-phenyl-pyrrolidine-3-carboxylic acid ((S)-6-mercapto-1-phenylcarbamoyl-hexyl)-amide] | < 50 | < 50 | IC50 (HDAC10; [5]): < 50 nM; IC50 (HDAC6; [6]): < 50 nM; IC50 [1]: 1 to 10 µM
O=C1NCCC[C@H]1C(=O)N[C@@H](CCCCCS)C(=O)Nc1ccccc1 [Example 35, (R)-2-Oxo-piperidine-3-carboxylic acid ((S)-6-mercapto-1-phenylcarbamoyl-hexyl)amide] | < 50 | < 50 | 
Cc1cccc(CCNC(=O)[C@H](CCCCCS)NC(=O)[C@@H]2CCCC(=O)N2)c1 [Example 34, (S)-6-Oxo-piperidine-2-carboxylic acid [(S)-6-mercapto-1-(2-m-tolyl-ethylcarbamoyl)hexyl]-amide] | 50 to 100 | < 50 | 
CN1C(=O)CCC[C@H]1C(=O)N[C@@H](CCCCCS)C(=O)Nc1ccccc1 [Example 40, (S)-1-Methyl-6-oxo-piperidine-2-carboxylic acid ((S)-6-mercapto-1-phenylcarbamoyl-hexyl)-amide] | < 50 | < 50 | 
O=C1CCC[C@H](C(=O)N[C@@H](CCCCCS)C(=O)Nc2ccccc2)N1 [Example 37, (R)-6-Oxo-piperidine-2-carboxylic acid ((S)-6-mercapto-1-phenylcarbamoyl-hexyl)amide] | < 50 | < 50 | 
CC(=O)SCCCCC[C@H](NC(=O)[C@H]1CCC(=O)N1)C(=O)Nc1ccccc1 [Example 21, Thioacetic acid S—{(S)-6-[((R)-5-oxo-pyrrolidine-2-carbonyl)-amino]-6-phenylcarbamoyl-hexyl}ester] |  |  | IC50 (HDAC10; [5]): < 50 nM; IC50 (HDAC6; [6]): < 50 nM; BWL % (HCT116 colon cancer): 1%; TVI % (HCT116 colon cancer): 62%; IC50 [2]: < 0.5 µM; BWL % (A2780 ovarian cancer): 7%; TVI % (A2780 ovarian cancer): 89%
O=C1CCC[C@@H](C(=O)N[C@@H](CCCCCS)C(=O)NCc2ccc(C(F)(F)F)cc2)N1 [Example 26, (S)-6-Oxo-piperidine-2-carboxylic acid [(S)-6-mercapto-1-(4-trifluoromethyl-benzylcarbamoyl)-hexyl]-amide] | 100 to 500 | 100 to 500 | 
O=C1C[C@@H](C(=O)N[C@@H](CCCCCS)C(=O)Nc2ccccc2)N1 [Example 27, (S)-4-Oxo-azetidine-2-carboxylic acid ((S)-6-mercapto-1-phenylcarbamoyl-hexyl)amide] | < 50 | < 50 | 
